The structures appear in SMILES notation.

A short description of the first data set: Human plasma stability (Protocols 1 and 2). Format: in vitro ADME. The note with it: Protocol 1; human plasma pH 7.4, 1 μM, 37° C., 2 h. Here is the method:
Example B6: Human Plasma Stability
Studies were carried out in human plasma. All plasma was obtained from Bioreclamation and collected on sodium heparin. Plasma was adjusted to pH 7.4. A DMSO stock was first prepared for the test compound. An aliquot of the DMSO solution was dosed into 1 mL of plasma, which had been pre-warmed to 37° C., at a final test compound concentration of 1 μM. The vials were kept in a benchtop Thermomixer® for the duration of the experiment. Aliquots (100 μL) were taken at each time point (0, 15, 30, 60, and 120 minutes) and added to 96-well plates which had been pre-filled with 300 μL of acetonitrile. Samples were stored at 4° C. until the end of the experiment. After the final time point was sampled, the plate was mixed and then centrifuged at 3,000 rpm for 10 minutes. Aliquots of the supernatant were removed, diluted 1:1 into distilled water, and analyzed by LC-MS/MS. The peak area response ratio to internal standard (PARR) of the compound at 15, 30, 60 and 120 minutes was compared to the PARR at time 0 to determine the percent of test compound remaining at each time point. Half-lives were calculated using GraphPad software, fitting to a single-phase exponential decay equation.
Studies were carried out in plasma. Plasma was prepared under approval of IRB and IACUC on sodium heparin. The pH of plasma was monitored and used within the range of pH 7.4 to pH 8.0. DMSO stocks were prepared for the test compounds. Aliquots of the DMSO solutions were diluted to 0.05 mM by 0.05 mM Sodium phosphate buffer with 0.5% BSA. Then 10 μL of 0.05 mM solutions were dosed into 90 μL of plasma in duplicates (n=2), which had been pre-warmed to 37° C., at a final test compound concentration of 5 μM. The plates were kept in a 37° C. water bath for the duration of the experiment. At each time point (0, 5, 15, 30, 45, 60, and 120 minutes), 400 μL of acetonitrile was added into corresponding wells. After the final time point was sampled, the plates were shaken at the vibrator (IKA, MTS 2/4) for 10 min (600 rpm/min) and then centrifuged at 5594 g for 15 min (Thermo Multifuge×3R). Aliquots of the supernatant were removed, diluted 1:1 into distilled water, and analyzed by LC-MS/MS. The peak area response ratio to internal standard (PARR) of the compounds at 5, 15, 30, 45, 60, and 120 minutes was compared to the PARR at time 0 to determine the percent of test compound remaining at each time point. Half-lives were calculated using Excel software, fitting to a single-phase exponential decay equation.
For `Cl.O=C(OCC12CCN(CC1)CC2)c1c[nH]c2cc3c(cc12)OCCO3` [Compound 30, Quinuclidin-4-ylmethyl 2,3-dihydro-6H-[1,4]dioxino[2,3-f]indole-8-carboxylate hydrochloride], the “% Remaining @ 2 h” value is listed as 10%.

The same data set, now with this note: human, plasma, 2 h, 1 μM, pH 7.4.
As to `O=C(OCC12CCN(CC1)CC2)c1c[nH]c2ccccc12` [Compound 1, quinuclidin-4-ylmethyl 1H-indole-3-carboxylate], the “% Remaining @ 2 h” value was determined as 11%. The same measure, in the same setting: in the case of `O=C(OCC12CCN(CC1)CC2)c1c[nH]c2ccc(F)cc12` [Compound 12, quinuclidin-4-ylmethyl 5-fluoro-1H-indole-3-carboxylate] it was 31%.

With `O=C(OCC12CCN(CC1)CC2)c1c[nH]c2cc(O)ccc12` [Compound 14, quinuclidin-4-ylmethyl 6-hydroxy-1H-indole-3-carboxylate], the “% Remaining @ 2 h” value is given as 26%. For `COc1ccc2[nH]cc(C(=O)OCC34CCN(CC3)CC4)c2c1` [Compound 18, quinuclidin-4-ylmethyl 5-methoxy-1H-indole-3-carboxylate], the “% Remaining @ 2 h” value was found to be 5.8%. The same measure, in the same setting: next, `Cc1ccc2[nH]cc(C(=O)OCC34CCN(CC3)CC4)c2c1` [Compound 20, quinuclidin-4-ylmethyl 5-methyl-1H-indole-3-carboxylate]: 14%. Turning to `Cc1cccc2[nH]cc(C(=O)OCC34CCN(CC3)CC4)c12` [Compound 21, quinuclidin-4-ylmethyl 4-methyl-1H-indole-3-carboxylate], the “% Remaining @ 2 h” value was 83%. On the same count and under the same terms, next, `O=C(OCC12CCN(CC1)CC2)c1c[nH]c2cc(Br)ccc12` [Compound 22, quinuclidin-4-ylmethyl 6-bromo-1H-indole-3-carboxylate]: 58%; `O=C(OCC12CCN(CC1)CC2)c1c[nH]c2ccc(Br)cc12` [Compound 23, quinuclidin-4-ylmethyl 5-bromo-1H-indole-3-carboxylate]: 21%.

Turning to `O=C(OCC12CCN(CC1)CC2)c1c[nH]c2cccc(Br)c12` [Compound 24, quinuclidin-4-ylmethyl 4-bromo-1H-indole-3-carboxylate], the “% Remaining @ 2 h” value came out at 89%. For the compound `O=C(OCC12CCN(CC1)CC2)c1c[nH]c2cc(Cl)ccc12` [Compound 26, quinuclidin-4-ylmethyl 6-chloro-1H-indole-3-carboxylate], the “% Remaining @ 2 h” value is 65%. On the same count and under the same terms, next, `N#Cc1ccc2c(C(=O)OCC34CCN(CC3)CC4)c[nH]c2c1` [Compound 28, quinuclidin-4-ylmethyl 6-cyano-1H-indole-3-carboxylate]: 79%.

Consider `COc1ccc2[nH]cc(C(=O)OCC34CCN(CC3)CC4)c2c1C` [Compound 34, quinuclidin-4-ylmethyl 5-methoxy-4-methyl-1H-indole-3-carboxylate], for which the “% Remaining @ 2 h” value worked out at 55%. Take `O=C(OCC12CCN(CC1)CC2)c1c[nH]c2cccc(Cl)c12` [Compound 35, quinuclidin-4-ylmethyl 4-chloro-1H-indole-3-carboxylate]: the “% Remaining @ 2 h” value is recorded as 56%. The same measure, in the same setting: next, `COc1cccc2[nH]cc(C(=O)OCC34CCN(CC3)CC4)c12` [Compound 36, quinuclidin-4-ylmethyl 4-methoxy-1H-indole-3-carboxylate]: 2.5%.

Staying with this data set, now noted: human, plasma, pH 7.4.
Take `COc1cc(C)c2c(C(=O)OCC34CCN(CC3)CC4)c[nH]c2c1` [Compound 37, quinuclidin-4-ylmethyl 6-methoxy-4-methyl-1H-indole-3-carboxylate]: the T1/2 result is reported as “∞”. On the same count and under the same terms, next, `COc1cc(Cl)c2c(C(=O)OCC34CCN(CC3)CC4)c[nH]c2c1` [Compound 38, quinuclidin-4-ylmethyl 4-chloro-6-methoxy-1H-indole-3-carboxylate]: “∞”. Compound `COc1ccc2[nH]cc(C(=O)OCC34CCN(CC3)CC4)c2c1Cl` [Compound 39, quinuclidin-4-ylmethyl 4-chloro-5-methoxy-1H-indole-3-carboxylate] came in with a half-life at 5 μM of 0.711 h. As for `COc1ccc2[nH]cc(C(=O)OCC34CCN(CC3)CC4)c2c1OC` [Compound 40, quinuclidin-4-ylmethyl 4,5-dimethoxy-1H-indole-3-carboxylate], the T1/2 entry is on record as “∞”. As to `O=C(OCC12CCN(CC1)CC2)c1c[nH]c2cc(F)cc(Br)c12` [Compound 41, quinuclidin-4-ylmethyl 4-bromo-6-fluoro-1H-indole-3-carboxylate], the T1/2 result was “∞”. Compound `O=C(OCC12CCN(CC1)CC2)c1c[nH]c2cc(Cl)cc(Br)c12` [Compound 42, quinuclidin-4-ylmethyl 4-bromo-6-chloro-1H-indole-3-carboxylate] returned a half-life at 5 μM of 2.87 h. For the compound `Cc1c(F)ccc2[nH]cc(C(=O)OCC34CCN(CC3)CC4)c12` [Compound 43, quinuclidin-4-ylmethyl 5-fluoro-4-methyl-1H-indole-3-carboxylate], the T1/2 result is on record as “∞”. As to `O=C(OCC12CCN(CC1)CC2)c1c[nH]c2cc(O)cc(Cl)c12` [Compound 46, quinuclidin-4-ylmethyl 4-chloro-6-hydroxy-1H-indole-3-carboxylate], the half-life at 5 μM is 14.3 h. As for `COc1ccc2[nH]cc(C(=O)OCC34CCN(CC3)CC4)c2c1Br` [Compound 47, quinuclidin-4-ylmethyl 4-bromo-5-methoxy-1H-indole-3-carboxylate], the half-life at 5 μM worked out at 4.34 h. Same read-out and setting: in the case of `COc1cc(Br)c2c(C(=O)OCC34CCN(CC3)CC4)c[nH]c2c1` [Compound 48, quinuclidin-4-ylmethyl 4-bromo-6-methoxy-1H-indole-3-carboxylate] it was 982 h; in that of `Cc1cc(Br)c2c(C(=O)OCC34CCN(CC3)CC4)c[nH]c2c1` [Compound 49, quinuclidin-4-ylmethyl 4-bromo-6-methyl-1H-indole-3-carboxylate], 13.8 h. `Cc1cc(Cl)cc2[nH]cc(C(=O)OCC34CCN(CC3)CC4)c12` [Compound 50, quinuclidin-4-ylmethyl 6-chloro-4-methyl-1H-indole-3-carboxylate]: the T1/2 entry is “∞”. The compound `Cc1cc(C)c2c(C(=O)OCC34CCN(CC3)CC4)c[nH]c2c1` [Compound 54, quinuclidin-4-ylmethyl 4,6-dimethyl-1H-indole-3-carboxylate] registered a half-life at 5 μM of 11.2 h. Same read-out and setting: in the case of `Cc1cc2c(C(=O)OCC34CCN(CC3)CC4)c[nH]c2cc1O` [Compound 55, quinuclidin-4-ylmethyl 6-hydroxy-5-methyl-1H-indole-3-carboxylate] it was 1.54 h.

Still in this data set, the particulars now being: human; Protocol 2; plasma pH 7.4 to 8.0, 5 μM, 37° C.; read-out: T1/2.
As for `Cc1ccc2c(C(=O)OCC34CCN(CC3)CC4)c[nH]c2c1.Cl` [Compound 45, Quinuclidin-4-ylmethyl 6-methyl-1H-indole-3-carboxylate hydrochloride], the half-life at 5 μM was determined as 1.93 h. Same read-out and setting: next, `Cl.O=C(OCC12CCN(CC1)CC2)c1c[nH]c2cc(F)c(F)cc12` [Compound 51, Quinuclidin-4-ylmethyl 5,6-difluoro-1H-indole-3-carboxylate hydrochloride]: 5.89 h. Still for that read-out and setting: next, `Cl.O=C(OCC12CCN(CC1)CC2)c1c[nH]c2cc(Cl)c(F)cc12` [Compound 52, Quinuclidin-4-ylmethyl 6-chloro-5-fluoro-1H-indole-3-carboxylate hydrochloride]: 8.88 h; `O=C(OCC12CCN(CC1)CC2)c1c[nH]c2cc(O)cc(Br)c12` [Compound 53, quinuclidin-4-ylmethyl 4-bromo-6-hydroxy-1H-indole-3-carboxylate]: 31.1 h.

For the origin of these results see patent publication US20170166561A1, “QUINUCLIDINE COMPOUNDS FOR MODULATING ALPHA7-NICOTINIC ACETYLCHOLINE RECEPTOR ACTIVITY” (Alpharmagen, LLC, priority 2014, published 2017).
